Data reported in patent US20260070929A1, “METHODS AND COMPOSITIONS FOR MODULATING KRAS(G12D)” (Ranok Therapeutics (Hangzhou) Co. LTD., priority 2022, published 2026).
Like-named read-outs stand apart in the source and are kept apart here.

What was measured:
[1] = target: T1, KRAS(G12D)/SOS1 (Homo sapiens, UniProt P01116, G12D); assay: KRAS(G12D)/SOS1 homogeneous time-resolved fluorescence (HTRF) assay; assay type: binding; details: absence of GTP; 4° C., 3 hr
T1 construct: purchased Cisbio 63ADK000CB17PEH
How it was run: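 HTRF kit assay of compound-blocked KRAS(G12D)–SOS1 interaction, run without GTP. Compounds were tested as 3-fold dilutions from 20 µM to 1.02 nM and incubated with the reaction components for 3 hr at 4 °C, sealed. IC50 was taken as the concentration giving 50% of maximal inhibition.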

[2] = test system: AGS gastric carcinoma cells [heterozygous G12D]; assay: Cancer cell line proliferation (CellTiter-Glo), AGS; assay type: cell-based; details: 72 hr treatment, read-out: AGS CTG (EC50)
How it was run: (§1)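 A 72 hr proliferation format is used: cells at 4,000/well, pre-grown 72 hr, then treated at 37° C./5% CO2 with 0.5% DMSO final. CellTiter-Glo measures viable cells, from which EC50 is calculated.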

[3] = test system: A-427 lung carcinoma cells [heterozygous G12D]; assay: Cancer cell line proliferation (CellTiter-Glo), A-427; assay type: cell-based; details: A-427 cells, 72 hr treatment, read-out: A427 CTG (EC50)
How it was run: as §1

[4] = test system: ASPC1 pancreatic adenocarcinoma cells [homozygous G12D]; assay: Cancer cell line proliferation (CellTiter-Glo), ASPC1; assay type: cell-based; details: 72 hr treatment, read-out: ASPC-1 CTG (EC50)
How it was run: as §1

[5] = test system: SW1990 pancreatic adenocarcinoma cells [homozygous G12D]; assay: Cancer cell line proliferation (CellTiter-Glo), SW1990; assay type: cell-based; details: Homo sapiens, 72 hr treatment, read-out: SW1990 CTG (EC50)
Description: The following cancer cell lines were employed: AGS gastric carcinoma [heterozygous G12D](ATCC, CRL-1739); A-427 lung carcinoma [heterozygous G12D](ATCC, HTB-53); ASPC1 pancreatic adenocarcinoma [homozygous G12D](ATCC, CRL-1682) and SW1990 pancreatic adenocarcinoma [homozygous G12D](ATCC CRL-2172). Cell lines were cultured essentially according to ATCC recommendations.
AGS, A-427, ASPC1, SW1990, and GP2D cells were plated in 96-well tissue culture plates at 4,000 cells/well and incubated at 37° C./5% CO2 for 72 hr in 100 μl of media. 3-fold serial dilutions of each test compound were prepared ranging from 20 μM to 1.02 nM. Each cell line was then treated with test compounds at various concentrations with a final concentration of 0.5% DMSO/well, and then incubated at 37° C./5% CO2 for 72 hr. 100 µl of CellTiter-Glo® Reagent (Promega Corporation, Madison, WI) was added to each well and processed according manufacturer's protocol. Results were analyzed and EC50 values were calculated in GraphPad 7 software.

T1 sequence (P01116 1-188 isoform P01116-2 G12D): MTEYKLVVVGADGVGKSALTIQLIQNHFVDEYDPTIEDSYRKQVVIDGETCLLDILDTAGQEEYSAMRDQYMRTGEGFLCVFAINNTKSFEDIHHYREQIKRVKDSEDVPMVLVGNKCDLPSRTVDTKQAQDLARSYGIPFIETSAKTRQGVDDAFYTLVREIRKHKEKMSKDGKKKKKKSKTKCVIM

Row | SMILES | IC50 [1] [nM] | EC50 ([2]; Homo sapiens) [nM] | EC50 ([3]; Homo sapiens) [nM] | EC50 ([4]; Homo sapiens, ASPC1, 72 h) [nM] | EC50 [5] [nM] | EC50 [2] [nM] | EC50 [3] [nM] | EC50 [4] [nM]
1 | C#Cc1cccc2cc(O)cc(-c3ncc4c(N5CC6CCC(C5)N6)nc(OCC5(CN6CCN(CC7CCN(Cc8ccc(-n9c(C(=O)NC(C)C(F)(F)F)nnc9-c9cc(C(C)C)c(O)cc9O)cc8)CC7)CC6)CC5)nc4c3F)c12 (stereo not shown) [Compound 126] | < 100 | < 100 | < 100 | < 100 | < 100 | – | – | –
2 | C#Cc1cccc2cc(O)cc(-c3ncc4c(N5CC6CCC(C5)N6)nc(OCC5(CN6CCN(Cc7ccc8c(c7)CN(C(=O)c7cc(C(C)C)c(O)cc7O)C8)CC6)CC5)nc4c3F)c12 [Compound 131] | < 100 | < 100 | 100 to 1000 | 100 to 1000 | < 100 | – | – | –
3 | C#Cc1cccc2cc(O)cc(-c3ncc4c(N5CC6CCC(C5)N6)nc(OCC5(CN6CCC(C(=O)N7CCN(C(=O)C8CCN(Cc9ccc%10c(c9)CN(C(=O)c9cc(C(C)C)c(O)cc9O)C%10)CC8)CC7)CC6)CC5)nc4c3F)c12 [Compound 121] | < 100 | < 100 | > 1000 | > 1000 | 100 to 1000 | – | – | –
4 | C#Cc1cccc2cc(O)cc(-c3ncc4c(N5CC6CNC(C6)C5)nc(OCC5(CN6CCN(CC7CCN(Cc8ccc9c(c8)CN(C(=O)c8cc(C(C)C)c(O)cc8O)C9)CC7)CC6)CC5)nc4c3F)c12 (stereo not shown) [Compound 129] | < 100 | 100 to 1000 | 100 to 1000 | > 1000 | 100 to 1000 | – | – | –
5 | C#Cc1cccc2cc(O)cc(-c3ncc4c(N5CC6CCC(C5)N6)nc(OCC5(CN6CCC(C(=O)N7CCN(Cc8ccc(-n9c(C(=O)NC(C)C(F)(F)F)nnc9-c9cc(C(C)C)c(O)cc9O)cc8)CC7)CC6)CC5)nc4c3F)c12 (stereo not shown) [Compound 120] | < 100 | < 100 | 100 to 1000 | 100 to 1000 | < 100 | – | – | –
6 | C#Cc1c(F)ccc2cc(O)cc(-c3ncc4c(N5CC6CCC(C5)N6)nc(OCC5(CN6CCN(CC7CCN(Cc8ccc(-n9c(C(=O)NCC)nnc9-c9cc(CC)c(O)cc9O)cc8)CC7)CC6)CC5)nc4c3F)c12 [Compound 149] | < 100 | < 100 | < 100 | < 100 | < 100 | – | – | –
7 | C#Cc1c(F)ccc2cc(O)cc(-c3ncc4c(N5CC6CCC(C5)N6C(=O)C(F)(F)F)nc(OCC5(CN6CCN(CC7CCN(Cc8ccc(-n9c(C(=O)NC(C)C(F)(F)F)nnc9-c9cc(C(C)C)c(O)cc9O)cc8)CC7)CC6)CC5)nc4c3F)c12 (stereo not shown) [Compound 146] | 100 to 1000 | < 100 | < 100 | 100 to 1000 | < 100 | – | – | –
8 | CCNC(=O)c1nnc(-c2cc(C(C)C)c(O)cc2O)n1-c1ccc(CN2CCN([C@H]3C[C@@H](COc4nc(N5CC6CCC(C5)N6)c5cnc(-c6cccc7cccc(OC)c67)c(F)c5n4)N(C)C3)CC2)cc1 [Compound 103] | > 1000 | < 100 | 100 to 1000 | 100 to 1000 | 100 to 1000 | – | – | –
9 | C#Cc1c(F)ccc2cc(O)cc(-c3nc(OC)c4c(N5CC6CCC(C5)N6)nc(OCC5(CN6CCN(CC7CCN(Cc8ccc(-n9c(C(=O)NC(C)C(F)(F)F)nnc9-c9cc(C(C)C)c(O)cc9O)cc8)CC7)CC6)CC5)nc4c3F)c12 (stereo not shown) [Compound 158] | < 100 | < 100 | < 100 | < 100 | < 100 | – | – | –
10 | C#Cc1cccc2cc(O)cc(-c3ncc4c(N5CC6CCC(C5)N6)nc(OCC5(CN6CCN(C(=O)C7CCN(Cc8ccc9c(c8)CN(C(=O)c8cc(C(C)C)c(O)cc8O)C9)CC7)CC6)CC5)nc4c3F)c12 [Compound 157] | < 100 | < 100 | 100 to 1000 | 100 to 1000 | 100 to 1000 | – | – | –
11 | CC(C)c1cc(C(=O)N2Cc3ccc(CN4CCN([C@H]5C[C@@H](COc6nc(N7CC8CCC(C7)N8)c7cnc(-c8cc(O)cc9ccccc89)c(F)c7n6)N(C)C5)CC4)cc3C2)c(O)cc1O [Compound 25] | < 100 | < 100 | 100 to 1000 | > 1000 | < 100 | – | – | –
12 | C#Cc1c(F)ccc2cc(O)cc(-c3ncc4c(N5CC6CCC(C5)N6)nc(OCC5(CN6CCC(C7CCN(Cc8ccc(-n9c(C(=O)NC(C)C(F)(F)F)nnc9-c9cc(C(C)C)c(O)cc9O)cc8)CC7)CC6)CC5)nc4c3F)c12 (stereo not shown) [Compound 162] | < 100 | < 100 | < 100 | < 100 | < 100 | – | – | –
13 | C#Cc1cccc2cc(O)cc(-c3ncc4c(N5CC6CCC(C5)N6)nc(OCC5(CN6CCN(CC7CCN(Cc8ccc(-n9c(C(=O)NCC(F)(F)F)nnc9-c9cc(C(C)C)c(O)cc9O)cc8)CC7)CC6)CC5)nc4c3F)c12 [Compound 127] | < 100 | < 100 | < 100 | < 100 | < 100 | – | – | –
14 | CCNC(=O)c1nnc(-c2cc(C(C)C)c(O)cc2O)n1-c1ccc(CN2CCC(C(=O)N3CCN([C@H]4C[C@@H](COc5nc(N6CC7CCC(C6)N7)c6cnc(-c7cccc(C)c7C)c(F)c6n5)N(C)C4)CC3)CC2)cc1 [Compound 56] | > 1000 | < 100 | 100 to 1000 | 100 to 1000 | < 100 | – | – | –
15 | C#Cc1cccc2cc(O)cc(-c3ncc4c(N5CC6CCC(C5)N6)nc(OCC5(CN6CCN(CC7CCN(Cc8ccc9c(c8)CN(C(=O)c8cc(C(C)C)c(O)cc8OC)C9)CC7)CC6)CC5)nc4c3F)c12 [Compound 152] | < 100 | < 100 | 100 to 1000 | 100 to 1000 | < 100 | – | – | –
16 | Cc1cccc2cccc(-c3ncc4c(N5CC6CCC(C5)N6)nc(OC[C@@H]5CC[C@H](CN6CCN(Cc7ccc(-n8c(C(=O)NC(C)C(F)(F)F)nnc8-c8cc(C(C)C)c(O)cc8O)cc7)CC6)N5C)nc4c3F)c12 (stereo partly shown) [Compound 107] | 100 to 1000 | 100 to 1000 | 100 to 1000 | 100 to 1000 | 100 to 1000 | – | – | –
17 | C#Cc1c(F)ccc2cc(O)cc(-c3ncc4c(N5CC6CCC(C5)N6)nc(OCC5(CN6CCC(C7CCN(Cc8ccc9c(c8)CN(C(=O)c8cc(C(C)C)c(O)cc8O)C9)CC7)CC6)CC5)nc4c3F)c12 [Compound 163] | < 100 | < 100 | 100 to 1000 | 100 to 1000 | < 100 | – | – | –
18 | COc1cccc2cccc(-c3ncc4c(N5CC6CCC(C5)N6)nc(OC[C@@H]5C[C@H](N6CCN(Cc7ccc8c(c7)CN(C(=O)c7cc(C(C)C)c(O)cc7O)C8)CC6)CN5C)nc4c3F)c12 [Compound 102] | 100 to 1000 | 100 to 1000 | 100 to 1000 | 100 to 1000 | 100 to 1000 | – | – | –
19 | C#Cc1c(F)ccc2cc(O)cc(-c3ncc4c(N5CC6CCC(C5)N6)nc(OCC5(CN6CCN(CC7CCN(Cc8ccc(-n9c(C(=O)NC(C)C(F)(F)F)nnc9-c9cc(C(C)C)c(O)cc9O)cc8)CC7)CC6)CC5)nc4c3F)c12 (stereo not shown) [Compound 153] | < 100 | < 100 | < 100 | < 100 | < 100 | – | – | –
20 | C#Cc1cccc2cc(O)cc(-c3ncc4c(N5CC6CCC(C5)N6C(=O)C(F)(F)F)nc(OCC5(CN6CCN(CC7CCN(Cc8ccc9c(c8)CN(C(=O)c8cc(C(C)C)c(O)cc8O)C9)CC7)CC6)CC5)nc4c3F)c12 [Compound 142] | 100 to 1000 | 100 to 1000 | 100 to 1000 | 100 to 1000 | 100 to 1000 | – | – | –
21 | C#Cc1c(F)ccc2cc(O)cc(-c3ncc4c(N5CC6CCC(C5)N6C(=O)C(F)(F)F)nc(OCC5(CN6CCN(CC7CCN(Cc8ccc(-n9c(C(=O)NCC)nnc9-c9cc(C(C)C)c(O)cc9O)cc8)CC7)CC6)CC5)nc4c3F)c12 [Compound 147] | < 100 | < 100 | < 100 | 100 to 1000 | < 100 | – | – | –
22 | C#Cc1c(F)ccc2cc(O)cc(-c3ncc4c(N5CC6CCC(C5)N6)nc(CCC5(CN6CCN(C7CCN(Cc8ccc9c(c8)CN(C(=O)c8cc(C(C)C)c(O)cc8O)C9)CC7)CC6)CC5)nc4c3F)c12 [Compound 161] | < 100 | < 100 | 100 to 1000 | 100 to 1000 | < 100 | – | – | –
23 | Cc1cccc2cccc(-c3ncc4c(N5CC6CCC(C5)N6)nc(OC[C@@H]5C[C@H](N6CCN(Cc7ccc8c(c7)CN(C(=O)c7cc(C(C)C)c(O)cc7O)C8)CC6)CN5C)nc4c3F)c12 [Example 1] | 100 to 1000 | – | – | – | 100 to 1000 | 100 to 1000 | 100 to 1000 | 100 to 1000
